Experimental data taken from PMC12391994, “Synthesis of a fac-Tricarbonylrhenium(I) Complex with Pyrithione, Its Physicochemical Characterization, and Assessment of Biological Effects” (ACS Omega, 2025).
Where two headings read alike, the source gives them in different places.

How the values were obtained:
CCD-19Lu cells = assay: MTT cytotoxicity assay, CCD-19Lu; type: cell-based, human; details: 72 h incubation, noncancerous fibroblast
Protocol: Its cytotoxicity was determined in the human HeLa cervical cancer cell line, the drug-sensitive Colo205 and its resistant counterpart, the ABCB1 expressing Colo320 colon adenocarcinoma cancer cell lines, using the colorimetric 3-(4,5-dimethylthiazol-2-yl)-2,5-diphenyltetrazolium bromide (MTT) test. To investigate the selectivity toward cancer cells, the noncancerous fibroblast CCD-19Lu cell line was included.
The tested compound was dissolved in DMSO to prepare a 5 mM stock solution, which was diluted in complete culture medium, to study the effect of compounds on cell growth of human colonic adenocarcinoma cell lines. Doxorubicin was used as the positive control. The cells were treated with a trypsin-versene (EDTA) solution. Cells were adjusted to a density of 1 × 10^4 cells in 100 μL of the appropriate culture medium and were added to each well, with the exception of the medium control wells. Except for the semiadherent Colo205 and Colo320 cell lines, the other adherent cell lines were seeded 24 h prior to the assay. Then, stock solutions were diluted in the appropriate culture medium, and 2-fold serial dilutions of compounds were prepared in 100 μL of the medium, horizontally. […] Cell growth was determined by measuring the optical density (OD) at 540/630 nm with a Multiscan EX ELISA reader (Thermo Labsystems, Cheshire, WA). […]

[1] = target: T1, cathepsin B (endopeptidase activity) (Homo sapiens, UniProt P07858); assay: Relative inhibition of cathepsin B endopeptidase activity; type: biochemical; details: 50 μM; substrate Z-Arg-Arg-AMC; pH 6.0
T1 construct: made in house; host or cells: E. coli
Description: Relative inhibition is expressed as a percentage of the decrease in reaction velocity in the presence of an inhibitor, in comparison to the reaction velocity in the absence of an inhibitor. For that purpose, the specific fluorogenic substrates Z-Arg-Arg-7-amido-4-methylcoumarin (Z-Arg-Arg-AMC) and 2-aminobenzoyl (Abz)-Gly-Ile-Val-Arg-Ala-Lys-(Dnp)-OH were used for cathepsin B endopeptidase and exopeptidase activities, respectively, and Z-Phe-Arg-AMC was used for cathepsin L and V activities.
Human recombinant cathepsin B was expressed in E. coli, recombinant cathepsin V was expressed in Pichia pastoris, and human recombinant cathepsin L was expressed in E. coli, as reported. − For the determination of cathepsin B endopeptidase and exopeptidase activities, 100 mM phosphate buffer (pH 6.0) and 60 mM acetate buffer (pH 5.0) were used, respectively, and for the determination of cathepsin V and L activities, 100 mM acetate buffer (pH 5.5) was used. All buffers contained 0.1% PEG 8000 (Sigma-Aldrich, St. Louis, MO), 5 mM cysteine, and 1.5 mM EDTA. Prior to the assay, the enzymes were activated in the assay buffer for 5 min at 37 °C.
To determine the effect of inhibitors on enzyme activity, the following substrates were used: Z-Arg-Arg-AMC (final concentration 5 μM, Z-RR-AMC; Bachem, Bubendorf, Switzerland) for cathepsin B endopeptidase activity, Abz-Gly-Ile-Val-Arg-Ala-Lys-(Dnp)-OH (final concentration 1 μM, Abz-GIVRAK-(Dnp)-OH; Bachem) for cathepsin B exopeptidase activity, and Z-Phe-Arg-AMC (final concentration 2 μM, Z-FR-AMC; Bachem) for cathepsin V and L activity. The substrate ([…]) at a final concentration and inhibitor ([…]) at a concentration of 50 μM were added to the wells of a black microplate. The reaction was then initiated by adding 90 μL of activated enzyme (final concentrations: 5 nM cathepsin B for its endopeptidase activity, 0.5 nM cathepsin B for its exopeptidase activity, 2.5 ng/mL for cathepsin V, and 0.02 nM for cathepsin L) in the assay buffer. The formation of fluorescent degradation products during the reaction was continuously monitored at 460 ± 10 nm with excitation at 380 ± 20 nm for Z-Arg-Arg-AMC and Z-Phe-Arg-AMC and at 420 ± 10 nm with excitation at 320 ± 20 nm for Abz-Gly-Ile-Val-Arg-Ala-Lys(Dnp)-OH at 37 °C on a Tecan Infinite M1000 (Mannedorf, Switzerland) spectrofluorometer. All assay mixtures contained 5% (v/v) DMSO. To prevent false-positive inhibition due to the formation of compound aggregates, 0.01% Triton X-100 was used. All measurements were performed in triplicate and repeated twice. The relative inhibition was calculated using the following equation: relative inhibition (%) = 100(1 – v i/v o), where v i and v o designate the reaction velocities in the presence and absence of inhibitor, respectively.

S. aureus ATCC 25923 = assay: Antibacterial MIC assay, S. aureus ATCC 25923; type: cell-based, Staphylococcus aureus; details: 18 h, visual inspection
Protocol: The antibacterial effect of the complex was tested against the Gram-negative strain Escherichia coli (E. coli) ATCC 25922, the Gram-positive reference strain Staphylococcus aureus (S. aureus) ATCC 25923, and the methicillin-resistant S. aureus MRSA ATCC 43300 strain. MRSA strains are responsible for several difficult-to-treat hospital-acquired infections.
The following bacterial strains were used in our experiments: Gram-positive S. aureus American Type Culture Collection (ATCC) 25923 as the methicillin-susceptible reference bacterial strain; methicillin-resistant S. aureus ATCC 43300 (MRSA) strain; E. coli ATCC 25922 as a Gram-negative bacterial strain.
MIC values of the complexes were determined in 96-well plates based on the Clinical and Laboratory Standard Institute guidelines (CLSI guidelines). The stock solutions of the compound (dissolved in DMSO at 5 mM concentration) were diluted in 100 μL of Mueller Hinton Broth. Then, 10^–4 dilution of an overnight bacterial culture in 100 μL of medium was added to each well, with the exception of the medium control wells.

[2] = 10 mM HEPES pH 7.4, 25.0 °C
Protocol: Distribution coefficients (D 7.4) were determined using n-octanol/buffered aqueous solution (10 mM HEPES, pH = 7.4) partitioning (Table ).
The traditional shake-flask method was used to obtain the distribution coefficient of the complex in n-octanol/buffered aqueous solution (10 mM HEPES, pH = 7.4) using UV–vis spectrophotometry. The measurements and data evaluation were performed as in our previous work.

Compound: N#Cc1ccccc1.[C-]#[O+].[C-]#[O+].[C-]#[O+].[O-]n1ccccc1=S.[Re+] [complex 4, fac-[Re(CO)3(pth)(benzonitrile)]]
- IC50 (CCD-19Lu cells): 5.47 ± 0.17 µM
- relative inhibition cathepsin B endopeptidase [1]: 63.6 ± 0.8%
- MIC (S. aureus ATCC 25923): 6.25 µM
- log D7.4 ([2]; c(Cl–) 0 mM): +1.61 ± 0.18
- log D7.4 ([2]; c(Cl–) 4 mM): +1.67 ± 0.14
- log D7.4 ([2]; c(Cl–) 24 mM): +1.71 ± 0.13
- log D7.4 ([2]; c(Cl–) 100 mM): +1.71 ± 0.14
